One may read the IC50 as the midpoint of a concentration-inhibition curve.

A value given as a limit tells only on which side of the number the result lay.

For the assay, the target named is T1, P2X4 receptor (Homo sapiens, UniProt Q99571).
T1 construct: expressed in transfected cells; host or cells: 1321N1 astrocytoma cells, retroviral vector pQCXIN, G418 selection, monoclones
T1 sequence (Q99571 1-388): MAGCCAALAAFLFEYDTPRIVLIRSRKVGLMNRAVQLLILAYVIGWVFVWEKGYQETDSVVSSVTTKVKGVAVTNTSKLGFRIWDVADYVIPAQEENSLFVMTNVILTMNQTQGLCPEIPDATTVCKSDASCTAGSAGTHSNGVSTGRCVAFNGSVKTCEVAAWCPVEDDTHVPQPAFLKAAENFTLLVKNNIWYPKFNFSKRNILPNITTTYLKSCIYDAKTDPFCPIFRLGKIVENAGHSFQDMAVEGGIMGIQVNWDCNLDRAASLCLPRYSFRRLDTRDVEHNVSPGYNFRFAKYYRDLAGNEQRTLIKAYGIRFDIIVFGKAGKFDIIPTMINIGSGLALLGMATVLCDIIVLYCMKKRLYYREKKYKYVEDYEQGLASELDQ
Nature of the assay: Measurement of Ca2+ influx in transfected 1321N1 astrocytoma cells (P2X4 inhibitory potency). It counts as cell-based. As to conditions: agonist-mediated Ca2+ influx, FLUO-4, 1321N1 astrocytoma cells; antagonists added 30 min before agonist. From the text:
The rat, mouse, and human P2X4 DNA, respectively, were cloned into the retroviral vector pQCXIN. 1321N1 Astrocytoma cells were transfected with the DNA using a retroviral system as described previously. In brief, GP+envAM12 packaging cells were first transiently co-transfected with a retroviral vector to generate the retrovirus and with a vesicular stomatitis virus G protein (VSV-G) to pseudotype the virus and to increase their infection efficiency. The viruses containing the rat, mouse or human P2X4 receptor sequence were then used to create a stable astrocytoma cell line. P2X4 receptor-expressing cells were selected with G418 ([…]).
The selection of monoclones for rat and human P2X4 receptors was performed using the limited dilution method by plating the cells at very low cell densities (1 cell clone per well in 96-well plates). Cells were counted, and then several dilutions were made to obtain a concentration of […]. We subsequently added 100 µL of the diluted cell suspension into each well expecting to obtain on average 1 cell per well. After a few days the wells that contained single clones were labeled and transferred into 24 well plates. More than 20 clones were selected for each cell line and characterized in calcium influx assay.
Measurement of Ca^2+ influx in transfected 1321N1 astrocytoma cells
P2X receptor function was determined on the basis of agonist-mediated increases in cytosolic Ca^2+ concentration. The fluorescent Ca^2+chelating dye FLUO-4 was used as an indicator of the relative levels of intracellular Ca^2+ in a 96-well format using a fluorescence imaging plate reader (Novostar, BMG, Germany). Cells were grown to confluence in 96-well black-walled tissue culture plates and loaded with FLUO-4 AM ([…]) in Hank's balanced salt solution (HBSS, containing 10 mM HEPES, pH 7.3, and 1% Pluronic® F127) for 1 h at 23° C. After incubation, the loaded cells were washed with the same buffer to remove extracellular FLUO-4 AM. Compound solutions were prepared in HBSS (containing 20 mM HEPES, pH 7.3) or DMSO depending on their solubility. […] Fluorescence intensity was measured at 520 nm for 30 s at 0.4 s intervals. Buffer or test compounds were injected sequentially into separate wells using the automatic pipetting device. At least three independent experiments were performed in triplicate or duplicate. Antagonists were added 30 min before the addition of agonists. The assays were performed in a final volume of 200 μL. Compounds were tested at 7-8 different concentrations spanning three orders of magnitude of concentrations. Statistical significances were calculated using the unpaired two-tailed t-test.
Regarding `Cc1nsc(-c2ccc(C)c(NCC(=O)N3CCc4c3cccc4N3C(=O)CCS3(=O)=O)c2)n1` [Example 13, 2-(1-((2-methyl-5-(3-methyl-1,2,4-thiadiazol-5-yl)phenyl)glycyl)indolin-4-yl) isothiazolidin-3-one 1,1-dioxide], the IC50 fell in the range of 0.0001 to 0.019 µM.
Take `COc1ccc2c(C(=O)CNc3cc(-c4nc(C)ns4)ccc3C)c[nH]c2n1` [Example 95, 1-(6-methoxy-1H-pyrrolo[2,3-b]pyridin-3-yl)-2-((2-methyl-5-(3-methyl-1,2,4-thiadiazol-5-yl)phenyl)amino)ethan-1-one]: the IC50 lay in the range of 0.0001 to 0.019 µM.
Compound `CC(=O)Nc1cccc2c1CCN2C(=O)CNc1cc(-c2nc(C)ns2)ccc1C` [Example 76, N-(1-((2-methyl-5-(3-methyl-1,2,4-thiadiazol-5-yl)phenyl)-glycyl)indolin-4-yl) acetamide] had an IC50 of 0.0001 to 0.019 µM.
Compound `Cc1nsc(-c2ccc(C)c(NCC(=O)N3CC(CCO)c4ccccc43)c2)n1` (centres unmarked) [Example 58, 1-(3-(2-hydroxyethyl)indolin-1-yl)-2-((2-methyl-5-(3-methyl-1,2,4-thiadiazol-5-yl)phenyl)amino)ethan-1-one] gave an IC50 of over 0.1 µM.
Next, `CCc1nsc(-c2ccc(C)c(NCC(=O)N3CCc4c(NS(C)(=O)=O)cccc43)c2)n1` [Example 20, N-(1-((5-(3-ethyl-1,2,4-thiadiazol-5-yl)-2-methylphenyl)glycyl)indolin-4-yl) methanesulfonamide]: 0.0001 to 0.019 µM; `Cc1nsc(-c2ccc(C)c(NCC(=O)N3CCc4c(-c5cccnc5)cccc43)c2)n1` [Example 32, 2-((2-methyl-5-(3-methyl-1,2,4-thiadiazol-5-yl)phenyl)amino)-1-(4-(pyridin-3-yl)indolin-1-yl)ethan-1-one]: 0.0001 to 0.019 µM; `Cc1noc(-c2ccc(F)c(NCC(=O)N3CCc4c3cccc4C(C)(O)CO)c2)n1` (centres unmarked) [Example 60, 1-(4-(1,2-dihydroxypropan-2-yl)indolin-1-yl)-2-((2-fluoro-5-(3-methyl-1,2,4-oxadiazol-5-yl)phenyl)amino)ethan-1-one]: 0.04 to 0.069 µM.
Compound `Cc1nsc(-c2ccc(C)c(NCC(=O)c3cn4c5c(cccc35)CCC4)c2)n1` [Example 103, 1-(5,6-dihydro-4H-pyrrolo[3,2,1-ij]quinolin-1-yl)-2-((2-methyl-5-(3-methyl-1,2,4-thiadiazol-5-yl)phenyl)amino)ethan-1-one] yielded an IC50 of 0.02 to 0.039 µM.
For `Cc1nc(-c2ccc(C)c(NCC(=O)c3c[nH]c4ccccc34)c2)no1` [Example 106, 1-(1H-indol-3-yl)-2-((2-methyl-5-(5-methyl-1,2,4-oxadiazol-3-yl)phenyl)amino)ethan-1-one] the value was 0.04 to 0.069 µM; for `CCc1nsc(-c2ccc(C)c(NCC(=O)N3CCc4c(N5CC(C)OC(C)C5)cccc43)c2)n1` (centres unmarked) [Example 27, 1-(4-(2,6-dimethylmorpholino)indolin-1-yl)-2-((5-(3-ethyl-1,2,4-thiadiazol-5-yl)-2-methylphenyl)amino) ethan-1-one], 0.0001 to 0.019 µM; for `Cc1nsc(-c2ccc(N3CCCC3)c(NCC(=O)N3CCc4c(OCC(C)(C)O)cccc43)c2)n1` [Example 24, 1-(4-(2-hydroxy-2-methylpropoxy)indolin-1-yl)-2-((5-(3-methyl-1,2,4-thiadiazol-5-yl)-2-(pyrrolidin-1-yl)phenyl)-amino)ethan-1-one], 0.0001 to 0.019 µM.
Turning to `COc1cccc2c1CCN2C(=O)CNc1cc(-c2nc(C)no2)ccc1C` [Example 2, 1-(4-methoxyindolin-1-yl)-2-((2-methyl-5-(3-methyl-1,2,4-oxadiazol-5-yl)phenyl)-amino)ethan-1-one], the IC50 is 0.0001 to 0.019 µM.
Take `Cc1nsc(-c2ccc(C)c(NCC(=O)c3cn4c5c(cccc35)C(=O)NCC4)c2)n1` [Example 99, 7-((2-methyl-5-(3-methyl-1,2,4-thiadiazol-5-yl)phenyl)glycyl)-3,4-dihydro-[1,4]diazepino[6,7,1-hi] indol-1(2H)-one]: the IC50 is 0.02 to 0.039 µM.
For `Cc1nsc(-c2cc(NCC(=O)N3CCc4c3cc(Br)cc4[C@@](C)(O)CO)c(C)cc2Br)n1` (stereo in doubt) [Example 123, 2-((4-bromo-2-methyl-5-(3-methyl-1,2,4-thiadiazol-5-yl)phenyl)amino)-1-(6-bromo-4-(1,2-dihydroxypropan-2-yl)indolin-1-yl)ethan-1-one] the value was over 0.1 µM; for `Cc1nsc(-c2ccc(C)c(NCC(=O)N3CCc4c(C(N)C(F)(F)F)cccc43)c2)n1` (centres unmarked) [Example 88, 1-(4-(1-amino-2,2,2-trifluoroethyl)indolin-1-yl)-2-((2-methyl-5-(3-methyl-1,2,4-thiadiazol-5-yl)phenyl)-amino)ethan-1-one], 0.04 to 0.069 µM.
Next, “2-((2-methyl-5-(3-methyl- 1,2,4-oxadiazol-5-yl) phenyl)amino)-1-(1H- pyrrolo[2,3-b]pyridin-3- yl)ethan-1-one [Example 107]”: 0.07 to 0.099 µM; `Cc1nsc(-c2ccc(C)c(NCC(=O)N3CCc4ccccc43)c2)n1` [Example 52, 1-(indolin-1-yl)-2-((2-methyl-5-(3-methyl-1,2,4-thiadiazol-5-yl)phenyl)amino)ethan-1-one]: 0.04 to 0.069 µM; `Cc1nsc(-c2ccc(C)c(NCC(=O)N3CCc4c(N5CCC(O)C5)cccc43)c2)n1` (centres unmarked) [Example 68, 1-(4-(3-hydroxypyrrolidin-1-yl)indolin-1-yl)-2-((2-methyl-5-(3-methyl-1,2,4-thiadiazol-5-yl)phenyl)amino)ethan-1-one]: 0.02 to 0.039 µM.
Next, `Cc1nsc(-c2ccc(C)c(NCC(=O)N3CCc4c3cccc4C(C)(F)CO)c2)n1` (centres unmarked) [Example 63, 1-(4-(2-fluoro-1-hydroxypropan-2-yl)indolin-1-yl)-2-((2-methyl-5-(3-methyl-1,2,4-thiadiazol-5-yl)phenyl)amino)ethan-1-one]: 0.0001 to 0.019 µM.
`Cc1nsc(-c2ccc(C)c(NCC(=O)N3CCc4c(OCCCO)cccc43)c2)n1` [Example 16, 1-(4-(3-hydroxypropoxy)indolin-1-yl)-2-((2-methyl-5-(3-methyl-1,2,4-thiadiazol-5-yl)phenyl)amino) ethan-1-one] showed an IC50 of 0.0001 to 0.019 µM.
Turning to `O=C(CNc1cccc(-c2ccccn2)c1)c1c[nH]c2cc(F)c(F)cc12` [Example 122, 1-(5,6-difluoro-1H-indol-3-yl)-2-((3-(pyridin-2-yl)phenyl)amino)ethan-1-one], the IC50 was over 0.1 µM.
Next, `Cc1nsc(-c2ccc(C)c(NCC(=O)N3CCc4c(N5CCC6(CC5)COC6)cccc43)c2)n1` [Example 23, 1-(4-(2-oxa-7-azaspiro[3.5]nonan-7-yl)indolin-1-yl)-2-((2-methyl-5-(3-methyl-1,2,4-thiadiazol-5-yl)phenyl)-amino)ethan-1-one]: 0.0001 to 0.019 µM.
Next, `COC(=O)c1cccc2c1CCN2C(=O)CNc1cc(-c2ccc(C)cn2)ccc1OC` [Example 119, methyl 1-((2-methoxy-5-(5-methylpyridin-2-yl)phenyl)glycyl) indoline-4-carboxylate]: 0.07 to 0.099 µM; `Cc1nsc(-c2ccc(C)c(NCC(=O)N3CCc4c(CS(C)(=N)=O)cccc43)c2)n1` (centres unmarked) [Example 69, imino(methyl)((1-((2-methyl-5-(3-methyl-1,2,4-thiadiazol-5-yl)phenyl)glycyl)indolin-4-yl)methyl)sulfanone]: over 0.1 µM; `CCc1noc(-c2ccc(OC)c(NCC(=O)c3cn(C)c4cc(OC)c(F)cc34)c2)n1` [Example 98, 2-((5-(3-ethyl-1,2,4-oxadiazol-5-yl)-2-methoxyphenyl)amino)-1-(5-fluoro-6-methoxy-1-methyl-1H-indol-3-yl) ethan-1-one]: 0.0001 to 0.019 µM.
For `Cc1nsc(-c2ccc(C)c(NCC(=O)N3CCc4c(NC(=O)[C@H](O)[C@@H](O)C(=O)O)cccc43)c2)n1` [Example 82, (2R,3R)-2,3-dihydroxy-4-((1-((2-methyl-5-(3-methyl-1,2,4-thiadiazol-5-yl)phenyl)-glycyl)indolin-4-yl)amino)-4-oxobutanoic acid] the value was 0.07 to 0.099 µM.

The record behind these values is US20260209215A1, “GLYCINE DERIVATIVES WITH P2X4 RECEPTOR-BLOCKING ACTIVITY AS DIAGNOSTICS AND FOR THE TREATMENT OF PAIN, INFLAMMATION, CANCER, AND OTHER P2X4 RECEPTOR-RELATED DISEASES” (RHEINISCHE-FRIEDRICH-WILHELMS-UNIVERSITÄT BONN, priority 2022, published 2026).
